Experimental data reported in US9814699B2, “Chemical compounds” (Janssen Pharmaceuticals, Inc., priority 2009, dated 2017).

Columns and labels:
[1] = tested on: HCV genotype 1a subgenomic replicon; test: HCV replicon assay, genotype 1a subgenomic replicon (luciferase); assay type: cell-based; conditions: Hepatitis C virus; genotype 1a replicon stable cell line, luciferase activity measured 48 hours later; read-out: Replicon 1A pEC50 (converted)
Method: (§1) Protocol for Testing and Data Analysis of Compounds in the HCV Replicon Assay
(§2) Compounds were assayed for activity against HCV using the genotype 1a and 1b subgenomic replicon model systems. Stable cell lines bearing the genotype 1a and 1b replicons were used for screening of compounds. Both replicons are bicistronic and contain the firefly luciferase gene. The ET cell line is stably transfected with RNA transcripts harboring a I389luc-ubi-neo/NS3-3′/ET replicon with firefly luciferase-ubiquitin-neomycin phosphotransferase fusion protein and EMCV-IRES driven NS3-5B polyprotein containing the cell culture adaptive mutations (E1202G; T1280I; K1846T) (Krieger at al, 2001 and unpublished). The genotype 1a replicon is a stable cell line licensed from Apath LLC, modified to contain the firefly luciferase gene. The cells were grown in DMEM, supplemented with 10% fetal calf serum, 2 mM Glutamine, Penicillin (100 IU/mL)/Streptomycin (100 μg/mL), 1× nonessential amino acids, and 250-500 μg/mL G418 (“Geneticin”). They were all available through Life Technologies (Bethesda, Md.). The cells were plated at 5×10^3 cells/well in 384 well plates containing compounds. The final concentration of compounds ranged between 0.03 pM to 50 μm and the final DMSO concentration of 0.5-1%.
(§3) Luciferase activity was measured 48 hours later by adding a Steady glo reagent (Promega, Madison, Wis.). Percent inhibition of replication data was plotted relative to no compound control. Under the same condition, cytotoxicity of the compounds was determined using cell titer glo (Promega, Madison, Ws). EC50s were determined from an 11 point dose response curve using 3-4-fold serial dilution for each compound, which spans a concentration range >1000 fold. The level of inhibition for each compound was determined with Activity Base or with BioAssay plus the Excel XC50 module. Percent inhibition was determined with the following equation where the cross-talk corrected value is the value from the test well, the compound positive control mean is the average value of the wells with no compound present, and the DMSO negative control mean is the average value of the wells with DMSO but no cells present.
(§4) [formula] These normalized values are exported to EC50 where they are plotted against the molar compound concentrations using the standard four parameter logistic equation: […]

[2] = tested on: HCV genotype 1b subgenomic replicon; test: HCV replicon assay, genotype 1b subgenomic replicon (ET cell line, luciferase); assay type: cell-based; conditions: Hepatitis C virus; genotype 1b replicon ET cell line, luciferase activity measured 48 hours later; read-out: Replicon 1B pEC50 (converted)
Method: as §1, §2, §3, §4

| SMILES | EC50 [1] [nM] | EC50 [2] [nM] |
| --- | --- | --- |
| COC(=O)N[C@H](C(=O)N1CCC[C@H]1c1ncc(-c2ccc(-c3ccc(-c4cnc([C@@H]5CC6(CN5C(=O)[C@@H](NC(=O)OC)C(C)C)O[C@@H](C)C[C@H](C)O6)[nH]4)cc3)cc2)[nH]1)C(C)C (stereo partly drawn) [Example 1, methyl [(1S)-1-({(2S)-2-[4-(4′-{2-[(3S,7S,9S)-7,9-dimethyl-2-((2S)-3-methyl-2-{[(methyloxy)carbonyl]amino}butanoyl)-6,10-dioxa-2-azaspiro[4.5]dec-3-yl]-1H-imidazol-4-yl}-4-biphenylyl)-1H-imidazol-2-yl]-1-pyrrolidinyl}carbonyl)-2-methylpropyl]carbamate] | 1.58 | 0.01 |
| COC(=O)N[C@H](C(=O)N1CCC[C@H]1c1ncc(-c2ccc(-c3ccc(-c4cnc([C@@H]5CC6(CN5C(=O)[C@@H](NC(=O)OC)C(C)C)OCCO6)[nH]4)cc3)cc2)[nH]1)C(C)C [Example 2, methyl [(1S)-2-methyl-1-({(2S)-2-[4-(4′-{2-[(8S)-7-((2S)-3-methyl-2-{[(methyloxy)carbonyl]amino}butanoyl)-1,4-dioxa-7-azaspiro[4.4]non-8-yl]-1H-imidazol-4-yl}-4-biphenylyl)-1H-imidazol-2-yl]-1-pyrrolidinyl}carbonyl)propyl]carbamate] | 0.0398 | 0.00794 |
| COC(=O)N[C@H](C(=O)N1CC2(C[C@H]1c1ncc(-c3ccc(-c4ccc(-c5cnc([C@@H]6CC7(CN6C(=O)[C@@H](NC(=O)OC)C(C)C)O[C@@H](C)C[C@H](C)O7)[nH]5)cc4)cc3)[nH]1)O[C@@H](C)C[C@H](C)O2)C(C)C (stereo partly drawn) [Example 3, dimethyl (4,4′-biphenyldiylbis{1H-imidazole-4,2-diyl[(3S,7S,9S)-7,9-dimethyl-6,10-dioxa-2-azaspiro[4.5]decane-3,2-diyl][(2S)-3-methyl-1-oxo-1,2-butanediyl]})biscarbamate] | 25.1 | 0.0158 |
| COC(=O)N[C@H](C(=O)N1CC2(C[C@H]1c1ncc(-c3ccc(-c4ccc(-c5cnc([C@@H]6CC7(CN6C(=O)[C@@H](NC(=O)OC)C(C)C)OCCO7)[nH]5)cc4)cc3)[nH]1)OCCO2)C(C)C [Example 4, dimethyl (4,4′-biphenyldiylbis{1H-imidazole-4,2-diyl(8S)-1,4-dioxa-7-azaspiro[4.4]nonane-8,7-diyl[(2S)-3-methyl-1-oxo-1,2-butanediyl]})biscarbamate] | 0.0398 | 0.01 |
| COC(=O)N[C@@H](C)C(=O)N1CC2(C[C@H]1c1ncc(-c3ccc(-c4ccc(-c5cnc([C@@H]6CCCN6C(=O)[C@@H](NC(=O)OC)C(C)C)[nH]5)cc4)cc3)[nH]1)OCCCO2 [Example 5, methyl ((1S)-1-methyl-2-{(3S)-3-[4-(4′-{2-[(2S)-1-((2S)-3-methyl-2-{[(methyloxy)carbonyl]amino}butanoyl)-2-pyrrolidinyl]-1H-imidazol-4-yl}-4-biphenylyl)-1H-imidazol-2-yl]-6,10-dioxa-2-azaspiro[4.5]dec-2-yl}-2-oxoethyl)carbamate] | 0.0794 | 0.02 |
| COC(=O)N[C@H](C(=O)N1CCC[C@H]1c1ncc(-c2ccc(-c3ccc(-c4cnc([C@@H]5CC6(CN5C(=O)[C@@H](NC(=O)OC)C(C)C)OCCCO6)[nH]4)cc3)cc2)[nH]1)C(C)C [Example 6, methyl [(1S)-2-methyl-1-({(2S)-2-[4-(4′-{2-[(3S)-2-((2S)-3-methyl-2-{[(methyloxy)carbonyl]amino}butanoyl)-6,10-dioxa-2-azaspiro[4.5]dec-3-yl]-1H-imidazol-4-yl}-4-biphenylyl)-1H-imidazol-2-yl]-1-pyrrolidinyl}carbonyl)propyl]carbamate] | 0.0251 | 0.00794 |
| COC(=O)N[C@H](C(=O)N1CCC[C@H]1c1ncc(-c2ccc(-c3ccc(-c4cnc([C@@H]5CC6(CN5C(=O)[C@@H](NC(=O)OC)C(C)C)OCC(C)(C)CO6)[nH]4)cc3)cc2)[nH]1)C(C)C [Example 7, methyl [(1S)-1-({(2S)-2-[4-(4′-{2-[(3S)-8,8-dimethyl-2-((2S)-3-methyl-2-{[(methyloxy)carbonyl]amino}butanoyl)-6,10-dioxa-2-azaspiro[4.5]dec-3-yl]-1H-imidazol-4-yl}-4-biphenylyl)-1H-imidazol-2-yl]-1-pyrrolidinyl}carbonyl)-2-methylpropyl]carbamate] | 0.794 | 0.00251 |
| [2H]C1([2H])OC2(C[C@@H](c3ncc(-c4ccc(-c5ccc(-c6cnc([C@@H]7CCCN7C(=O)[C@@H](NC(=O)OC)C(C)C)[nH]6)cc5)cc4)[nH]3)N(C(=O)[C@@H](NC(=O)OC)C(C)C)C2)OC([2H])([2H])C1([2H])[2H] [Example 8, methyl [(1S)-2-methyl-1-({(2S)-2-[4-(4′-{2-[(3S)-2-((2S)-3-methyl-2-{[(methyloxy)carbonyl]amino}butanoyl)-6,10-dioxa-2-azaspiro[4.5]dec-3-yl]-1H-imidazol-4-yl}-4-biphenylyl)-1H-imidazol-2-yl]-1-pyrrolidinyl}carbonyl)propyl]carbamate-d6] | 0.0316 | 0.00794 |
| [2H]C1([2H])OC2(C[C@@H](c3ncc(-c4ccc(-c5ccc(-c6cnc([C@@H]7CCCN7C(=O)[C@@H](NC(=O)OC)C(C)C)[nH]6)cc5)cc4)[nH]3)N(C(=O)[C@@H](NC(=O)OC)C(C)C)C2)OC1([2H])[2H] [Example 9, methyl [(1S)-2-methyl-1-({(2S)-2-[4-(4′-{2-[(8S)-7-((2S)-3-methyl-2-{[(methyloxy)carbonyl]amino}butanoyl)-1,4-dioxa-7-azaspiro[4.4]non-8-yl]-1H-imidazol-4-yl}-4-biphenylyl)-1H-imidazol-2-yl]-1-pyrrolidinyl}carbonyl)propyl]carbamate-d4] | 0.0316 | 0.00631 |
| COC(=O)N[C@H](C(=O)N1CCC[C@H]1c1ncc(-c2ccc(-c3ccc(-c4cnc([C@@H]5CC6(CN5C(=O)[C@@H](NC(=O)OC)C(C)C)O[C@H](C)[C@@H](C)O6)[nH]4)cc3)cc2)[nH]1)C(C)C [Example 10, methyl [(1S)-1-({(2S)-2-[4-(4′-{2-[(2R,3R,8S)-2,3-dimethyl-7-((2S)-3-methyl-2-{[(methyloxy)carbonyl]amino}butanoyl)-1,4-dioxa-7-azaspiro[4.4]non-8-yl]-1H-imidazol-5-yl}-4-biphenylyl)-1H-imidazol-2-yl]-1-pyrrolidinyl}carbonyl)-2-methylpropyl]carbamate] | 2 | 0.01 |
| COC(=O)N[C@H](C(=O)N1CCC[C@H]1c1ncc(-c2ccc(-c3ccc(-c4cnc([C@@H]5CC6(CN5C(=O)[C@@H](NC(=O)OC)C(C)C)O[C@@H](C)[C@H](C)O6)[nH]4)cc3)cc2)[nH]1)C(C)C [Example 11, methyl [(1S)-1-({(2S)-2-[4-(4′-{2-[(2S,3S,8S)-2,3-dimethyl-7-((2S)-3-methyl-2-{[(methyloxy)carbonyl]amino}butanoyl)-1,4-dioxa-7-azaspiro[4.4]non-8-yl]-1H-imidazol-5-yl}-4-biphenylyl)-1H-imidazol-2-yl]-1-pyrrolidinyl}carbonyl)-2-methylpropyl]carbamate] | 1.26 | 0.01 |
| COC(=O)N[C@H](C(=O)N1CCC[C@H]1c1nc(-c2ccc(-c3ccc(-c4c[nH]c([C@@H]5CC6(CN5C(=O)[C@@H](NC(=O)OC)C(C)C)SCCS6)n4)cc3)cc2)c[nH]1)C(C)C [Example 12, methyl [(1S)-2-methyl-1-({(2S)-2-[4-(4′-{2-[(8S)-7-((2S)-3-methyl-2-{[(methyloxy)carbonyl]amino}butanoyl)-1,4-dithia-7-azaspiro[4.4]non-8-yl]-1H-imidazol-4-yl}-4-biphenylyl)-1H-imidazol-2-yl]-1-pyrrolidinyl}carbonyl)propyl]carbamate] | 0.0794 | 0.00398 |
| CC[C@H](NC(=O)OC)C(=O)N1CC2(C[C@H]1c1nc(-c3ccc(-c4ccc(-c5c[nH]c([C@@H]6CCCN6C(=O)[C@@H](NC(=O)OC)C(C)C)n5)cc4)cc3)c[nH]1)SCCS2 [Example 13, methyl[(1S)-2-methyl-1-({(2S)-2-[4-(4′-{2-[(8S)-7-((2S)-2-{[(methyloxy)carbonyl]amino}butanoyl)-1,4-dithia-7-azaspiro[4.4]non-8-yl]-1H-imidazol-4-yl}-4-biphenylyl)-1H-imidazol-2-yl]-1-pyrrolidinyl}carbonyl)propyl]carbamate] | 0.0631 | 0.00398 |
| COC(=O)NCC(=O)N1CC2(C[C@H]1c1ncc(-c3ccc(-c4ccc(-c5cnc([C@@H]6CCCN6C(=O)[C@@H](NC(=O)OC)C(C)C)[nH]5)cc4)cc3)[nH]1)SCCS2 [Example 14, methyl [(1S)-2-methyl-1-({(2S)-2-[4-(4′-{2-[(8S)-7-({[(methyloxy)carbonyl]amino}acetyl)-1,4-dithia-7-azaspiro[4.4]non-8-yl]-1H-imidazol-4-yl}-4-biphenylyl)-1H-imidazol-2-yl]-1-pyrrolidinyl}carbonyl)propyl]carbamate] | 0.631 | 0.00501 |
